Experimental findings from US20240360159A1, “NOVEL APPLICATIONS FOR OXAZABOROLIDINES AND NEW METHODS OF MANUFACTURE THEREOF” (Pathway Intermediates Limited, priority 2021, published 2024) are described below.

Marks after values point to notes of the source that are not given here.

Data set [1] relates to broiler (Ross 308; mixed sex). Nature of the data set: Growth performance in broilers, feed additives vs ampicillin (Example 5). As to conditions: for ADFI / ADG / BW / FCR / Mortality / Survivability: 0.1% in feed. It is filed as in vivo. As to the method:
The pure oxazaborolidines prepared by the method of Example 1 was investigated to assess its potential as a growth promotor in poultry.
(§1) 1200 birds, 1-day old broiler (Ross 308; mixed sex) were treated over 32 days. 4 dietary groups were assessed with 6 replicates per diet; 50 birds per pen. The four Dietary groups consisted of (1) a control basal diet and (2) feed supplemented with a feed additive according to an embodiment of the present invention (0.1% 2-butyl-3,4 dimethyl-5-phenyl 1,3,2-oxazaborolidine-compound 2), (3) feed supplemented with a feed additive according to another embodiment of the present invention (0.1% 3,4-dimethyl-2-5-diphenyl-1,3,2-oxazaborolidine-compound 1) and (4) feed supplemented with the known antibiotic, ampicillin (0.1%).
(§2) The feeding programme followed a typical feeding program on a farm (3 phases: starter; grower; finisher) with the feed additives added to the basal diet with top dressing.
(§3) The following measurements were taken:
Growth Performance: Body weight (BW); Weight gain (Average Daily Gain—ADG); Feed intake (Average Daily Feed Intake—ADFI); FCR (food conversion ratio—feed input divided by feed output); Mortality Production Index.

Another data set has as its system cecal microbiome. Nature of the data set: Cecal bacterial microbiome α-diversity by 16S sequencing (Example 5). The format is in vivo, broiler chickens. As to conditions: first week; genus level; compared to the basal control; p=0.0184 (Compound 1) and 0.0393 (Compound 2), two-way ANOVA; 0.1% in diet. As to the method: as §1
Microbiome: Cecal samples were harvested at three time points (week 1, week 3 and week 5). Six replicates were harvested per dietary group. Total DNA was purified and the bacterial microbiome was analysed by 16S sequencing.
Plots display the smallest and largest value as the whiskers, with the box comprising the 25th percentile, median and 75th percentile.

Data set [2] has as its system broiler (Ross 308; mixed sex). Nature of the data set: Growth performance in broilers, feed additive (Example 4). It is filed as in vivo. As to conditions: 0.055% in feed. The method, then: The pure oxazaborolidine compound 5 (R)-(+)-2-Methyl-CBS-oxazaborolidine prepared according to Example 1 was investigated to assess its potential as a growth promoter in poultry.
240 birds, 1-day old broiler (Ross 308; mixed sex) were treated over 32 days. Two dietary groups were given six replicates per diet; […]. The two treatments consisted of (1) a control basal diet and (2) feed supplemented with a feed additive according to an embodiment of the present invention (0.055% (R)-(+)-2-Methyl-CBS-oxazaborolidine).
as §2, §3
Growth Performance: Body weight (BW); Weight gain (Average Daily Gain-ADG); Feed intake (Average Daily Feed Intake—ADFI); FCR (food conversion ratio-feed input divided by feed output).

The mark [3] stands for this setting: 0.1% in diet, compared to the basal diet Control.

As for `CC1(C)S[C@@H]2[C@H](NC(=O)[C@H](N)c3ccccc3)C(=O)N2[C@H]1C(=O)O` [ATB, ampicillin, reference compound], in data set [1] (Grower (8-21 d)), the ADFI is listed as 85.9^A g, the ADG is given as 62.6^A g, the BW is on record as 1074.6^A g and the FCR is 1.42^bc. The molecule also yielded a Mortality in data set [1] (Grower (8-21 d)) of 1.53%. In data set [1] (Grower (22-32 d)), the ADFI is 155.9^A g, the ADG was 83.0^A g, the BW was 1987.4^A g and the FCR worked out at 2.06. Further, the Mortality in data set [1] (Grower (22-32 d)) is reported as 0.00%. Also, in data set [1] (Overall (1-32 d)), the ADFI was 96.0^A g, the ADG was 60.7^A g, the FCR is 1.66^y and the Survivability worked out at 95.4%. For the same molecule, in data set [1] (Starter (1-7 d)), the ADFI was 21.9^A g, the ADG is 22.0^A g, the BW is given as 199.1^A g and the FCR was 0.99^C. This molecule also yielded a Mortality in data set [1] (Starter (1-7 d)) of 2.33%.
For `C[C@H]1[C@@H](c2ccccc2)OB(c2ccccc2)N1C` [Compound 1, 3,4-dimethyl-2-5-diphenyl-1,3,2-oxazaborolidine], the “α-diversity of the cecal microbiome” value in the data set on cecal microbiome is reported as “significantly increased”. In addition, in data set [1] (setting [3]), the “decrease of overall FCR” value amounted to 0.59%. Further, in data set [1] (Grower (8-21 d)), the ADFI was 72.7^C g, the ADG is 51.5^C g, the BW is reported as 892.8^C g and the FCR is given as 1.46^ab. Moreover, the Mortality in data set [1] (Grower (8-21 d)) is reported as 0.37%. Moreover, in data set [1] (Grower (22-32 d)), the ADFI is reported as 133.5^C g, the ADG was 70.6^C g, the BW is on record as 1669.4^C g and the FCR is on record as 2.08. This molecule yielded a Mortality in data set [1] (Grower (22-32 d)) of 0.40%. Further, in data set [1] (Overall (1-32 d)), the ADFI is recorded as 82.0^C g, the ADG is 50.8^C g, the FCR is 1.69^x and the Survivability worked out at 97.9%. In data set [1] (Starter (1-7 d)), the ADFI is 19.5^B g, the ADG was 18.2^C g, the BW is 172.4^C g and the FCR was 1.07^A. The molecule also gave a Mortality in data set [1] (Starter (1-7 d)) of 1.00%.
Consider `CCCCB1OC(c2ccccc2)C(C)N1C` (stereo not drawn) [Compound 2, 2-butyl-3,4 dimethyl-5-phenyl 1,3,2-oxazaborolidine], for which, in the data set on cecal microbiome, the “α-diversity of the cecal microbiome” value is recorded as “significantly increased”. In data set [1] (setting [3]), the “decrease of overall FCR” value was 1.76%, the “increase of overall ADFI” value amounted to 4.6% and the “increase of overall ADG” value was determined as 5.7%. In addition, in data set [1] (Grower (8-21 d)), the ADFI is recorded as 80.7^B g, the ADG was 58.6^B g, the BW is recorded as 1002.2^B g and the FCR is 1.42^c. For the same molecule, the Mortality in data set [1] (Grower (8-21 d)) turned out to be 1.12%. Also, in data set [1] (Grower (22-32 d)), the ADFI was 144.0^B g, the ADG is listed as 76.1^B g, the BW was 1839.0^B g and the FCR is given as 2.09. The Mortality in data set [1] (Grower (22-32 d)) amounted to 0.42%. Moreover, in data set [1] (Overall (1-32 d)), the ADFI is 89.3^B g, the ADG was 56.1^B g, the FCR is on record as 1.67^xy and the Survivability is reported as 96.7%. For the same molecule, in data set [1] (Starter (1-7 d)), the ADFI was 20.4^B g, the ADG was 19.6^B g, the BW is reported as 182.0^B g and the FCR is recorded as 1.04^B. For the same molecule, in data set [1] (Starter (1-7 d)), the Mortality came to 1.33%. Further, the “increase in body weight gain” value in data set [1] (finisher phase, 0.1% in diet, compared to the basal diet Control) is recorded as 5.7%. In addition, the “increase in body weight gain” value in data set [1] (grower phase, 0.1% in diet, compared to the basal diet Control) is recorded as 8.7%. The “increase in body weight gain” value in data set [1] (starter phase, 0.1% in diet, compared to the basal diet Control) is given as 4.5%.
In the case of `CB1OC(c2ccccc2)(c2ccccc2)[C@H]2CCCN12` [Compound 5, (R)-(+)-2-Methyl-CBS-oxazaborolidine], in data set [2] (Finisher (22-32 d)), the ADFI is given as 147.8 g, the ADG is on record as 90.1 g, the BW was determined as 2078.6 g and the FCR is listed as 1.64. Also, in data set [2] (Grower (8-21 d)), the ADFI is reported as 68.3 g, the ADG came to 48.3 g, the BW is 816.9 g and the FCR worked out at 1.41. In data set [2] (Overall (1-32 d)), the ADFI is 89.5 g, the ADG is on record as 58.2 g and the FCR is given as 1.52. In data set [2] (Starter (1-7 d)), this molecule yielded an ADFI of 15.5 g, an ADG of 14.2 g, a BW of 140.7 g and an FCR of 1.08.
